Assay results published in patent publication US6852673B2, “Herbicidal pyridine compounds” (BASF Aktiengesellschaft, priority 1998, dated 2005).

How the values were obtained:
Type in all cases: in vivo
[1] = tested on: Zea mays (ZEAMX); test: Pre-emergence herbicidal evaluation, maize
Text: (§1) The pre-emergence herbicidal activity of the compounds of the present invention is exemplified by the following test in which the seeds of a variety of monocotyledonous and dicotyledonous plants are seperately mixed with potting soil and planted on top of approximately one inch of soil in separate pots. After planting, the pots are sprayed with the selected aqueous acetone solution containing test compound in sufficient quantity to provide the equivalent of about 0.0125 to 0.4 kg per hectare of test compound per pot. The treated pots are then placed on greenhouse benches, watered and cared for in accordance with conventional greenhouse procedures. From 2 to 4 weeks after treatment, the tests are terminated and each pot is examined and rated according to the rating system set forth below.

[2] = tested on: Cassia obtusifolia (CASOB); test: Pre-emergence herbicidal evaluation, sicklepod; details: dose 0.4 kg/ha
Text: as §1

[3] = tested on: Stellaria media (STEME); test: Pre-emergence herbicidal evaluation, chickweed
Method in brief: (§2)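 Rating done 2–4 weeks post-treatment in the greenhouse. Compound, in aqueous acetone, was sprayed onto soil surface right after sowing, at rates equivalent to about 0.0125–0.4 kg per hectare, before crop or weed emergence.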

[4] = tested on: Digitaria sanguinalis (DIGSA); test: Pre-emergence herbicidal evaluation, large crabgrass
Method in brief: as §2

[5] = tested on: Hordeum vulgare (HORVW); test: Post-emergence herbicidal evaluation, winter barley; details: rated 2 to 4 weeks after treatment
Experimental: (§3) [table] [table] […] These acetone solutions are diluted with water and the resulting formulations applied at dosage levels equivalent of about 0.03 to 0.4 kg per hectare of test compound per pot. After spraying the plants are placed on greenhouse benches and are cared for in the usual manner, commensurate with conventional greenhouse practices. From 2 to 4 weeks after treatment, the seedling plants are examined and rated according to the rating system provided above. A rating 0 indicates growth as untreated control, a rating 9 indicates death.

[6] = tested on: Cassia obtusifolia (CASOB); test: Post-emergence herbicidal evaluation, sicklepod; details: rated 2 to 4 weeks after treatment
Experimental: as §3

[7] = tested on: Alopecurus myosuroides (ALOMY); test: Post-emergence herbicidal evaluation, black grass; details: rated 2 to 4 weeks after treatment
Experimental: as §3

[8] = tested on: Digitaria sanguinalis (DIGSA); test: Post-emergence herbicidal evaluation, large crabgrass; details: rated 2 to 4 weeks after treatment
Experimental: as §3

[9] = tested on: Setaria viridis (SETVI); test: Post-emergence herbicidal evaluation, green foxtail; details: for SETVI rating: rated 2 to 4 weeks after treatment; for grass control such as Setaria virides: in barley at crop selective doses
Experimental: as §3

[10] = tested on: weeds; test: Post-emergence herbicidal evaluation, overall weed control; details: in barley at crop selective doses
Experimental: as §3

[11] = tested on: Echinochloa grus galli (ECHCG); test: Post-emergence herbicidal evaluation, barnyard grass; details: rated 2 to 4 weeks after treatment
Experimental: as §3

Structure (SMILES) | ZEAMX rating ([1]; dose 0.013 kg/ha) | ZEAMX rating ([1]; dose 0.025 kg/ha) | ZEAMX rating ([1]; dose 0.1 kg/ha) | ZEAMX rating ([1]; dose 0.4 kg/ha) | STEME rating ([3]; dose 0.1 kg/ha) | STEME rating ([3]; dose 0.4 kg/ha) | DIGSA rating ([4]; dose 0.013 kg/ha) | DIGSA rating ([4]; dose 0.025 kg/ha) | DIGSA rating ([4]; dose 0.1 kg/ha) | DIGSA rating ([4]; dose 0.4 kg/ha) | HORVW rating ([5]; dose 0.1 kg/ha) | HORVW rating ([5]; dose 0.4 kg/ha) | CASOB rating ([6]; dose 0.4 kg/ha) | ALOMY rating ([7]; dose 0.1 kg/ha) | ALOMY rating ([7]; dose 0.4 kg/ha) | DIGSA rating ([8]; dose 0.1 kg/ha) | DIGSA rating ([8]; dose 0.4 kg/ha) | SETVI rating ([9]; dose 0.1 kg/ha) | SETVI rating ([9]; dose 0.4 kg/ha) | grass control such as Setaria virides [9] | also measured
Cc1cc(OCC(F)(F)C(F)F)nc(Oc2cc(C(F)(F)F)nn2C)c1 [Example 6] | 0 (0 - No effect) | 1 (1 - Trace effect) | 3 (3 - Moderate effect) | 5 (5 - Definite injury) | 9 (9 - Complete kill) | 9 (9 - Complete kill) | 1 (1 - Trace effect) | 2 (2 - Slight effect) | 9 (9 - Complete kill) | 9 (9 - Complete kill) | 2 (2 - Slight effect) | 3 (3 - Moderate effect) | 6 (6 - Herbicidal effect) | 6 (6 - Herbicidal effect) | 8 (8 - Approaching complete kill) | 6 (6 - Herbicidal effect) | 7 (7 - Good herbicidal effect) | 3 (3 - Moderate effect) | 6 (6 - Herbicidal effect) | effective | CASOB rating [2]: 9 (9 - Complete kill); HORVW rating ([5]; dose 0.25 kg/ha): 1 (1 - Trace effect); CASOB rating ([6]; dose 0.25 kg/ha): 4 (4 - Injury); ALOMY rating ([7]; dose 0.25 kg/ha): 2 (2 - Slight effect); DIGSA rating ([8]; dose 0.25 kg/ha): 4 (4 - Injury); SETVI rating ([9]; dose 0.25 kg/ha): 2 (2 - Slight effect); broad-leaved weed control [10]: effective
Cc1cc(OCC(F)(F)C(F)(F)C(F)(F)C(F)F)nc(Oc2cc(C(F)(F)F)nn2C)c1 [Example 8] | 1 (1 - Trace effect) | 1 (1 - Trace effect) | 1 (1 - Trace effect) | 2 (2 - Slight effect) | 9 (9 - Complete kill) | 9 (9 - Complete kill) | 1 (1 - Trace effect) | 2 (2 - Slight effect) | 9 (9 - Complete kill) | 9 (9 - Complete kill) | 3 (3 - Moderate effect) | 3 (3 - Moderate effect) | 7 (7 - Good herbicidal effect) | 7 (7 - Good herbicidal effect) | 8 (8 - Approaching complete kill) | 9 (9 - Complete kill) | 9 (9 - Complete kill) | 6 (6 - Herbicidal effect) | 8 (8 - Approaching complete kill) | effective | selectivity in maize [1]: good selectivity; STEME rating ([3]; dose 0.013 kg/ha): 1 (1 - Trace effect); STEME rating ([3]; dose 0.025 kg/ha): 4 (4 - Injury); HORVW rating ([5]; dose 0.03 kg/ha): 2 (2 - Slight effect); CASOB rating ([6]; dose 0.03 kg/ha): 2 (2 - Slight effect); CASOB rating ([6]; dose 0.1 kg/ha): 7 (7 - Good herbicidal effect); ALOMY rating ([7]; dose 0.03 kg/ha): 2 (2 - Slight effect); DIGSA rating ([8]; dose 0.03 kg/ha): 8 (8 - Approaching complete kill); ECHCG rating ([11]; dose 0.03 kg/ha): 2 (2 - Slight effect); ECHCG rating ([11]; dose 0.1 kg/ha): 5 (5 - Definite injury); ECHCG rating ([11]; dose 0.4 kg/ha): 8 (8 - Approaching complete kill); SETVI rating ([9]; dose 0.03 kg/ha): 3 (3 - Moderate effect); broad-leaved weed control [10]: effective
